Assay results as given in patent US20100144815A1, “AMINO ACID COMPOSITION” (priority 2007, published 2010).

Tests used:
[1] = system: Mouse fibroblasts (3T3-L1 cells); assay: Fatty acid releasing activity in mouse fibroblasts differentiated to adipocytes (NEFA-C Test Wako); assay type: cell-based; details: 1 μM in PBS, 4 hours; triplicate; control 0.024
Method: The induction of differentiation from mouse fibroblasts (3T3-L1 cells) to adipocytes was carried out in 12-well multiwell plates according to a known procedure. After treatment over about 2 weeks to induce differentiation to adipocytes, it was confirmed under a microscope that large differences in the differentiation induction activity were not present among these wells.
[…] After 4 hours, 5 μL of the PBS solution was picked up and was transferred to a 96-well multiwell plate. The amount of free-fatty acid was measured on the 96-well multiwell plate by using a NEFA-C Test Wako which is for measuring free-fatty acid.
The principle of measuring the amount of free-fatty acid is as follows. AcylCoA is produced by the reaction between acylCoA synthetase (ACS) and free-fatty acid. The reaction of acylCoA oxidase (ACOD) with the produced acylCoA generates hydrogen peroxide, and in the presence of this hydrogen peroxide, oxidative condensation between 3-methyl-N-ethyl-N-(β-hydroxyethyl)aniline (MEHA) and 4-aminoantipyrine was done, and thereby a blue-purple dye was produced. The amount of free fatty acid can be detected by measurement Of the optimal absorbance of this blue-purple dye. A large quantity of free fatty acid indicates a high level of lipolysis and an inhibition of intracellular fat accumulation […].

[2] = system: Mouse fibroblasts (3T3-L1 cells); assay: Inhibition of differentiation of mouse fibroblasts into adipocytes, measured as GPDH activity; assay type: cell-based; details: 10 μM in D-MEM medium; control without addition 370 units
Method: Experiments were carried out for investigating whether the amino acid composition of the present invention is active in inhibiting the intracellular accumulation of fat granules (specifically, the ability to inhibit the induction of the differentiation of preadipocytes).
Mouse fibroblasts (3T3-LI cells) efficiently differentiate into adipocytes in the presence of dexamethasone (DEX), isobutylmethylxanthine (IBMX), and insulin. It is known that the addition of “Wortmannin”, which is a substance that inhibits the induction of differentiation to adipocytes, inhibits differentiation into adipocytes. This inhibitory effect can be evaluated by measuring the GPDH activity.
The GPDH activity is quantitated in terms of units where 1 unit equals 1 nmol of NADH which is oxidized for one minute in 1 mL of the culture medium for inducing the differentiation of mouse fibroblasts (3T3-LI cells) into adipocytes. A smaller value of units indicates a greater inhibitory effect on differentiation and a greater inhibition of intracellular fat granule accumulation.
The culture medium was obtained by dissolving the same amino acid composition of the present invention as that in Example 1 into D-MEM medium (i.e. serum-containing liquid medium) to provide a concentration of 1 mass %. Almost of the all amount of the amino acid composition was dissolved well by ultrasonication. […]

[3] = system: athletes of sports which need endurance; assay: Endurance exercise test in athletes after beverage ingestion (stationary bicycle, crossover); assay type: in vivo, human
Method: The object of these experiments was 12 athletes (6 males, 6 females) of sports which need endurance (for example, cycling, rowing, or triathlon). The following (a)-(c) were evaluated for a beverage containing the amino acid composition of the present invention, water, and flavor (Example 1), a beverage containing glucose, water, and flavor (Comparative Example 1), and a beverage containing water and flavor (Comparative Example 2): (a) work done during full exercise, (b) total amount of fat oxidation during steady-state submaximal exercise, (c) changes of plasma glucagon concentration and free-fatty acid, and (d) change of blood lactate concentration.
The test used a 3-way double-blind crossover design. The 12 athletes were divided into 6 groups. Each of the groups, which contains 2 athletes, is used in each of the following six kinds of experimental sequential procedures with 3 kinds of beverages (i.e. Example 1 and Comparative Examples 1 and 2).
In FIG. 1, the time, when the fasting was finished, was designated as the base time (i.e. time 0). A prescribed diet and limited exercise had been done during the period from 24 hours before the base time to 12 hours before the base time; fasting was carried out in the period of from 12 hours before the base time to time 0; and the beverage (i.e. Example 1, Comparative Example 1, or Comparative Example 2) was orally ingested at 30 minutes after the finish of the fasting. After the lapse of 30 minutes after ingesting the beverage (designated as the “sample” in FIG. 1), exercise with a stationary training bicycle was performed for 85 minutes at a work load equivalent to 65% of the maximum oxygen intake (referred to below as steady-state submaximal exercise), and, after finishing steady-state submaximal exercise, as much work as possible was completed in 5 minutes on the stationary training bicycle.

SMILES: CC(C)NCC(O)c1ccc(O)c(O)c1 (racemic) [Comparative Example 9, dl-isoproterenol]
- average value of absorbance (amount of free-fatty acid) [1]: 0.041

SMILES: COC[C@H]1OC(=O)c2coc3c2[C@@]1(C)C1=C(C3=O)[C@@H]2CCC(=O)[C@@]2(C)C[C@H]1OC(C)=O [Comparative Example 4, Wortmannin]
- GPDH activity [2]: 47 units

SMILES: O=C[C@H](O)[C@@H](O)[C@H](O)[C@H](O)CO [Comparative Example 1, glucose]
- amount of work during the 5 minutes of full exercise (average value of the 12 participants) ([3]; 380 g beverage (6 g active) orally 30 min before 85 min steady-state submaximal exercise, then 5 min full exercise): 83.3 kJ
- total amount of fat oxidation during 85-minute steady-state submaximal exercise ([3]; beverage orally 30 min before exercise at 65% of maximum oxygen intake): 49.3 g
- concentration of lactic acid after 5-minute full exercise ([3]; blood, after full exercise): 8.8 mmol/L
- concentration of lactic acid immediately before full exercise (after the sustained exercise period) ([3]; blood, before full exercise): 1.5 mmol/L
